# Results reported in patent publication US20230349922A1, “H2 Blockers Targeting Liver Macrophages for the Prevention and Treatment of Liver Disease and Cancer” (Université de Strasbourg, priority 2020, published 2023).
# How the values were obtained:
# [1] = test system: Huh7.5.1dif cells; test: IL6 and TNFα expression by qRT-PCR in HCV-infected Huh7.5.1dif cells; type: cell-based, human
# Method: FIG. 8. The Huh7.5.1^dif Cell-Based System Recapitulates Transcriptional Dysregulations in Human Macrophages. (A-B) HRH2 knockdown leads to CREB5 downregulation in Huh7.5.1^dif cells similar to macrophages. Macrophages (A) and Huh7.5.1^dif cells (B) were transfected with siRNA CTRL or targeting HRH2 expression and activated using LPS+IFNγ or HCV-infection respectively. HRH2, CREB5 expression and the HCV viral load were analyzed by qRT-PCR. (Macrophage=three independent experiments n=8; Huh7.5.1^dif cells=two independent experiments n=6). (C) Nizatidine treatment decreases IL6 and TNF expression in Huh7.5.1^dif cells similar to macrophage. Huh7.5.1^dif cells were HCV infected and treated with nizatidine. IL6 and TNFα expression were analyzed by qRT-PCR. […]
# Real-Time qRT-PCR. cDNAs were synthetized by reverse transcription using SuperScript III First-Strand Synthesis SuperMix (Life Technologies). Expression of […] IL6, TNFα and IL1β was analyzed by quantitative real-time PCR using TaqMan Gene Expression Assays (Thermo Fisher Scientific) on the CFX96 Touch Real-Time PCR Detection System PCR system (Bio-Rad). Expression of human CCL2 and TGF was analyzed using iTaq™ Universal SYBR® Green Supermix (Bio-Rad). The 2^−ΔCT method was used for relative quantification (Schmittgen and Livak, Nature Protoc., 2008, 3: 1101-1108) of mRNA with normalization to 18S. […]
# [2] = test system: HRH2/cAMP/PKA axis; test: PLS assessment upon perturbation of the HRH2/cAMP/PKA axis in Huh7.5.1dif cells; type: cell-based, human; details: histamine 10 μM + nizatidine 10 μM, 48 hours
# Method: Histamine, 8-CPT, cAMP and H89 Treatment. Huh7.5.1^dif cells were cultured in DMEM containing 1% FBS and 1% DMSO and incubated with histamine (10 μM) or histamine+nizatidine (10 μM) for 48 hours. Fresh medium containing histamine was replenished every 12 hours. For 8-CPT cAMP and H89, Huh7.5.1^dif cells cultured in DMEM 1% DMSO and 1% FBS were incubated with 8-CPT cAMP (100 μM), H89 (1 μM) or DMSO as a control for 48 hours. Fresh medium containing 8-CPT cAMP was replenished every 12 hours.
# Transcriptomic Analysis and PLS Calculation. Gene expression profiling and the 32 gene PLS 32 profiling were performed using 250-500 ng total RNA by using either nCounter Digital Analyzer system (NanoString) or the HumanHT-12 beadarray (Illumina) for the time-course experiments. PLS gene expression was normalized according to 6 housekeeping gene expression using GenePattern genomic analysis toolkits (Hoshida, PLOS ONE, 2010, 5: e15543; Peck et al., Genome Biol., 2006, 7: R61; Reich et al., Nature Genet., 2006, 38: 500-501). Induction or suppression of PLS risk signature was determined as previously reported by using Gene Set Enrichment Analysis (GSEA), implemented in GenePattern genomic analysis toolkits (Hoshida, PLOS ONE, 2010, 5: e15543; Peck et al., Genome Biol., 2006, 7: R61; Reich et al., Nature Genet., 2006, 38: 500-501). PLS was always determined by using CTRL cells as references. Results are presented as simplified heatmaps showing the classification of PLS global status as poor or good prognosis and the significance of induction/suppression of PLS genes (log 10 of false discovery rate (FDR) values). For each experiment, heatmaps show: in the upper part: the classification of PLS global status as poor (orange) or good (green) prognosis, and in the bottom part: the significance of induction (red) or suppression (blue) of PLS poor- or good-prognosis genes. Global status corresponds to the difference between low risk- and high risk-gene expression. The statistic tests, normalized enrichment score (NES) and FDR values are provided for each PLS experiment (poor- and good-prognosis genes variation and global status) in the Source Data file.
# [3] = patients, after a 300 mg oral dose; cited from earlier work
# [4] = test system: patient-derived HCC tumor spheroids; test: Cell viability (ATP, CellTiter-Glo) of patient-derived HCC tumorspheroids; type: cell-based, human; details: nizatidine 50 μM, 4 days, ATP levels, compared to DMSO; 6 patients
# Method: Patient-Derived HCC Tumor Spheroids. Tumorspheroids were generated from liver tissues from HCC patients undergoing surgical resection and dissociated using the Human Tumor Dissociation Kit. Total cell populations including epithelical (i.e., cancer cells/hepatocytes) and NPCs were used to generate multicellular tumorspheroids in Corning® 96-well Black/Clear Bottom Low Flange Ultra-Low Attachment Microplates (Corning). After 48 hours, HCC-derived spheroids were treated with nizatidine 50 μM, sorafenib 10 μM or DMSO vehicle control for 4 days. Fresh medium containing DMSO or drugs was added every day. Cell viability was assessed using CellTiter-Glo® (Luminescent Cell Viability Assay), according to manufacturer's instruction.
# [5] = test system: patient-derived Kupffer cells; test: Cytokine expression by qRT-PCR in M1 differentiated patient-derived Kupffer cells; type: cell-based, human; details: Kupffer cells isolated from patient tissues, LPS + IFNγ, nizatidine 30 μM 48 hours
# Method: Real-Time qRT-PCR. cDNAs were synthetized by reverse transcription using SuperScript III First-Strand Synthesis SuperMix (Life Technologies). Expression of […] IL6, TNFα and IL1β was analyzed by quantitative real-time PCR using TaqMan Gene Expression Assays (Thermo Fisher Scientific) on the CFX96 Touch Real-Time PCR Detection System PCR system (Bio-Rad). Expression of human CCL2 and TGF was analyzed using iTaq™ Universal SYBR® Green Supermix (Bio-Rad). The 2^−ΔCT method was used for relative quantification (Schmittgen and Livak, Nature Protoc., 2008, 3: 1101-1108) of mRNA with normalization to 18S. The 2^−ΔCT method was used for relative quantification (Schmittgen and Livak, Nature Protoc., 2008, 3: 1101-1108) of mRNA with normalization to GAPDH mRNA. Isolation and Treatment of Patient-Derived Kupffer Cells. Kupffer cells were isolated as previously described (Kegel et al., J. Vis. Exp., 2016, 109: e53069) from liver tissue of patients without history of chronic liver disease. Briefly, the non-parenchymal cell populations (NPCs) were purified by serial centrifugation followed by separation of Kupffer cells, exploiting fast attachment of primary macrophages to plastic within 20 minutes. Cells were cultured in RPMI 1640 Medium with GlutaMAX™-I supplement and HEPES and supplemented with 10% FBS and gentamycin (0.05 mg/mL). […]
smiles,measurement,setting,value
"CNC(=C[N+](=O)[O-])NCCSCc1csc(CN(C)C)n1 [Nizatidine, N-[2-[[[2-[(dimethylamino)methyl]-4-thizaolyl]methyl]thio]ethyl]-N′-methyl-2-nitro-1,1-ethene-diamine]",IL6 expression,[1],decreased
same,TNFα expression,[1],decreased
same,histamine-induced PLS poor-prognosis status,[2],reversal
same,plasma concentrations,[3],2000 to 4000 nM
same,tumor spheroid viability,[4],significant decrease of tumor spheroid viability in 4 out of 6 patients
same,pro-inflammatory cytokine expression,[5],direct effect
